Source: PubChem BioAssay AID330 (DTP/NCI, 2004)
Values joined by “and” are separate entries in the source; they are usually repeats but may differ in a detail not shown here. Identical values can stand only once. Toxic doses and inconclusive results are not listed.

System: P388 leukemia ip, CD2F1 mice, survival T/C
Test: NCI In Vivo Anticancer Drug Screen. Data for tumor model P388 Leukemia (intraperitoneal) in CD2F1 (CDF1) mice
Conditions: endpoint: median survival time, higher = longer survival
Method in brief: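 Mice carrying the transplanted tumor received test compound or vehicle. Survival was recorded in each group, and the value is the treated-group measurement divided by that of the vehicle-treated control group.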

[1] = dose: 60.0 mg/kg/injection, schedule: Q01DX005 (ip), vehicle: saline with Tween-80
[2] = dose: 120.0 mg/kg/injection, schedule: Q01DX005 (ip), vehicle: saline with Tween-80
[3] = dose: 240.0 mg/kg/injection, schedule: Q01DX005 (ip), vehicle: saline with Tween-80
[4] = dose: 25.0 mg/kg/injection, schedule: Q01DX009 (ip), vehicle: saline
[5] = dose: 50.0 mg/kg/injection, schedule: Q01DX009 (ip), vehicle: saline
[6] = dose: 100.0 mg/kg/injection, schedule: Q01DX009 (ip), vehicle: saline
[7] = dose: 200.0 mg/kg/injection, schedule: Q01DX009 (ip), vehicle: saline

In the case of C1=CN2CC(c3ccccc3)=NNC2c2ccccc21 (stereo unspecified), the T/C (dose: 100.0 mg/kg/injection, schedule: Q04DX002 (ip), vehicle: Klucel (hydroxypropylcellulose) (HPC)) is reported as 107 % of control and the T/C (dose: 200.0 mg/kg/injection, schedule: Q04DX002 (ip), vehicle: Klucel (hydroxypropylcellulose) (HPC)) is reported as 99 % of control.
With CSc1ccccc1C(=S)N1CCOCC1 the T/C (dose: 100.0 mg/kg/injection, schedule: Q01DX001 (ip), vehicle: saline with Tween-80) was 100 % of control, the T/C (dose: 200.0 mg/kg/injection, schedule: Q01DX001 (ip), vehicle: saline with Tween-80) was 90 % of control and the T/C (dose: 400.0 mg/kg/injection, schedule: Q01DX001 (ip), vehicle: saline with Tween-80) was 109 % of control.
For CC(=O)N=C1C=C(NC(C)=O)C(=O)c2ccccc21, the T/C (dose: 6.25 mg/kg/injection, schedule: Q01DX009 (ip), vehicle: Klucel (hydroxypropylcellulose) (HPC)) was 103 % of control, the T/C (dose: 12.5 mg/kg/injection, schedule: Q01DX009 (ip), vehicle: Klucel (hydroxypropylcellulose) (HPC)) was 99 % of control and 100 % of control and 116 % of control and the T/C (dose: 25.0 mg/kg/injection, schedule: Q01DX009 (ip), vehicle: Klucel (hydroxypropylcellulose) (HPC)) was 100 % of control and 105 % of control and 124 % of control. For the same compound, the T/C (dose: 50.0 mg/kg/injection, schedule: Q01DX009 (ip), vehicle: Klucel (hydroxypropylcellulose) (HPC)) was 112 % of control.
O=C(Nc1ccccc1C(=O)c1ccccc1)Nc1ccc(F)cc1[N+](=O)[O-] was tested, and the T/C (dose: 50.0 mg/kg/injection, schedule: Q01DX009 (ip), vehicle: saline with Tween-80) was 97 % of control, the T/C (dose: 100.0 mg/kg/injection, schedule: Q01DX009 (ip), vehicle: saline with Tween-80) was 109 % of control and the T/C (dose: 200.0 mg/kg/injection, schedule: Q01DX009 (ip), vehicle: saline with Tween-80) was 94 % of control.
With O=[N+]([O-])c1cc(I)c(O)c(/C=N/NS(=O)(=O)c2ccc(F)cc2)c1 the T/C [1] was 104 % of control, the T/C [2] was 105 % of control and the T/C [3] was 101 % of control.
In the case of COC(=O)N1c2ccccc2N(C(=O)OC)C1C#N, the T/C [1] is reported as 108 % of control, the T/C [2] is reported as 98 % of control and the T/C [3] is reported as 112 % of control.
For CCCCCCCCCc1ccc(OC(=O)CCC)cc1, the T/C (dose: 100.0 mg/kg/injection, schedule: Q01DX009 (ip), vehicle: Klucel (hydroxypropylcellulose) (HPC)) was 102 % of control, the T/C (dose: 200.0 mg/kg/injection, schedule: Q01DX009 (ip), vehicle: Klucel (hydroxypropylcellulose) (HPC)) was 97 % of control and the T/C (dose: 400.0 mg/kg/injection, schedule: Q01DX009 (ip), vehicle: Klucel (hydroxypropylcellulose) (HPC)) was 99 % of control.
For CC1C(=O)OC2C1CCC1(C)CCC(O)C(C)C21 (stereo unspecified), the T/C (dose: 100.0 mg/kg/injection, schedule: Q04DX002 (ip), vehicle: saline with Tween-80) was 102 % of control, the T/C (dose: 200.0 mg/kg/injection, schedule: Q04DX002 (ip), vehicle: saline with Tween-80) was 99 % of control and the T/C (dose: 400.0 mg/kg/injection, schedule: Q04DX002 (ip), vehicle: saline with Tween-80) was 99 % of control.
CCC(C)C1NC(=O)C(NC(=O)c2c3nc4c(C(=O)NC5C(=O)NC(C(C)CC)C(=O)N6CCCC6C(=O)N(C)CC(=O)N(C)C(C(C)C)C(=O)OC5C)cc([N+](=O)[O-])c(C)c4oc-3c(C)c(=O)c2N)C(C)OC(=O)C(C(C)C)N(C)C(=O)CN(C)C(=O)C2CCCN2C1=O (stereo unspecified) was tested, and the T/C (dose: 0.2 mg/kg/injection, schedule: Q01DX009 (ip), vehicle: Klucel (hydroxypropylcellulose) (HPC)) was 168 % of control, the T/C (dose: 0.4 mg/kg/injection, schedule: Q01DX009 (ip), vehicle: Klucel (hydroxypropylcellulose) (HPC)) was 228 % of control and the T/C (dose: 0.4 mg/kg/injection, schedule: Q01DX009 (ip), vehicle: water) was 169 % of control. The T/C (dose: 0.6 mg/kg/injection, schedule: Q01DX009 (ip), vehicle: water) was 193 % of control and the T/C (dose: 0.8 mg/kg/injection, schedule: Q01DX009 (ip), vehicle: Klucel (hydroxypropylcellulose) (HPC)) was 92 % of control.
In the case of Cc1ccc(NC(=S)NC(=O)/C=C/c2ccccc2)cc1Cl, the T/C [4] is reported as 100 % of control, the T/C [5] is reported as 105 % of control and the T/C [6] is reported as 98 % of control. For the same compound, the T/C [7] was 97 % of control.
In the case of CN(C)CCCN1c2ccc(O)cc2Sc2ccc(Cl)cc21, the T/C (dose: 25.0 mg/kg/injection, schedule: Q04DX003 (ip), vehicle: saline with Tween-80) is reported as 100 % of control, the T/C (dose: 50.0 mg/kg/injection, schedule: Q04DX003 (ip), vehicle: saline with Tween-80) is reported as 95 % of control and the T/C (dose: 100.0 mg/kg/injection, schedule: Q04DX003 (ip), vehicle: saline with Tween-80) is reported as 95 % of control.
In the case of CCC(=O)NC, the T/C [4] is reported as 97 % of control, the T/C [5] is reported as 97 % of control and the T/C [6] is reported as 106 % of control. For the same compound, the T/C [7] was 107 % of control.
In the case of N#CC[n+]1ccc2ccccc2c1, the T/C (dose: 12.5 mg/kg/injection, schedule: Q01DX009 (ip), vehicle: saline) is reported as 105 % of control, the T/C [4] is reported as 99 % of control and the T/C [5] is reported as 101 % of control.
CCOc1cccc(C=NCCS)c1O was tested, and the T/C (dose: 50.0 mg/kg/injection, schedule: Q01DX005 (ip), vehicle: saline with Tween-80) was 92 % of control, the T/C (dose: 100.0 mg/kg/injection, schedule: Q01DX005 (ip), vehicle: saline with Tween-80) was 90 % of control and the T/C (dose: 200.0 mg/kg/injection, schedule: Q01DX005 (ip), vehicle: saline with Tween-80) was 86 % of control.
